Values joined by “and” are separate entries in the source; they are usually repeats but may differ in a detail not shown here. Identical values can stand only once.
Tests used:
[1] = system: atypical absence epilepsy rodent models; experiment: AY9944 atypical absence epilepsy rodent model: seizure number and seizure time under creatine; type: in vivo, rat; details: for Seizure # Between 13:00:00 to 15:00:00: twice daily injection of creatine at 30 mg/kg, individual epileptic animals
Protocol: • Induced via administering the cholesterol inhibitor AY9944 during postnatal developing period P2 to P21. • Epileptic seizure is chronic, resembling all the symptoms of atypical absence epilepsy • Failure to show ictal immobility • Slow spike-wave discharges • Cognitive impairments • Counterintuitive with application of GABA Positive allosteric modulators and Agonists. • Greater seizure susceptibility in female than male.
11 epileptic animals were treated initially with saline to establish base line (day 0), then treated with twice daily injection of creatine at 30 mg/kg (days 1-5). […] Specifically, the inventors performed the following: • Day 0—Control (saline injection) • Injection of creatine between days 1-5—twice daily injection of 30 mg/kg of creatine • Day #2 (30 mg/kg creatine) • Day #5 (30 mg/kg creatine)

[2] = system: extra-synaptic GABAA receptors; experiment: Allosteric modulation of extra-synaptic GABAA receptors (expression cells; whole cell patch clamp); type: cell-based
Text: FIG. 3 depicts, in accordance with an embodiment herein, utilizing whole cell patch clamp on primary cultured neuron (rat cortex) to confirm creatine's effect on extra-synaptic GABAA receptors.

[3] = system: GABAA receptor expressing cells; experiment: Co-application with ethanol on GABAA receptor expressing cells; type: cell-based; details: depends on concentration relative to ethanol
Text: Thus, in one embodiment, creatine, phosphocreatine and their analogs can be used to prevent and/or provide protection against alcohol addiction.
Alcoholism is a serious problem both to the individual, the individual's family, and society. Currently there is no compound that can effectively prevent alcoholism. Alcohol (Ethanol) acts as a positive allosteric modulator of extrasynaptic GABAA receptors. […] Thus creatine, phosphocreatine and their analogs may be used to prevent and/or provide protection against alcohol addiction.

[4] = system: atypical absence epilepsy rodent models; experiment: AY9944 atypical absence epilepsy rodent model: seizure number and seizure time under creatine; type: in vivo, rat
[5] = Day 2 vs Day 0 saline control, 30 mg/kg twice daily, individual animals, 30 mg/kg
[6] = Day 5 vs Day 0 saline control, 30 mg/kg twice daily, individual animals, 30 mg/kg
[7] = average of 11 animals, Day 2, 30 mg/kg twice daily
[8] = average of 11 animals, Day 5, 30 mg/kg twice daily

| SMILES | Seizure # Between 13:00:00 to 15:00:00 ([1]; Day 2, 30 mg/kg) | % Seizure # Reduction, Day #2 Post Creatine/Control [1, 5] | % Total Seizure Time Reduction, Day #2 Post Creatine/Control [1, 5] | Seizure # Between 13:00:00 to 15:00:00 ([1]; Day 5, 30 mg/kg) | % Seizure # Reduction, Day #5 Post Creatine/Control [1, 6] | % Total Seizure Time Reduction, Day #5 Post Creatine/Control [1, 6] | % Seizure # Reduction, Day #2 Post Creatine/Control, Average [1, 7] [%] | % Total Seizure Time Reduction, Day #2 Post Creatine/Control, Average [1, 7] [%] | % Seizure # Reduction, Day #5 Post Creatine/Control, Average [1, 8] [%] | % Total Seizure Time Reduction, Day #5 Post Creatine/Control, Average [1, 8] [%] | reduction in duration of epileptic seizure events ([1]; epileptic rodent model) | reduction in frequency of epileptic seizure events ([1]; epileptic rodent model) | mode of action on extra-synaptic GABAA receptors [2] | effect on the GABAA receptor positive allosteric modulator effect of alcohol (ethanol) [3] | duration of effect of a single dose compared to current antiepileptic drugs [4] | therapeutic effect compared with creatine ([1]; atypical absence epilepsy rodent models) | effect on expression cells compared with creatine ([2]; expression cells) |
| --- | --- | --- | --- | --- | --- | --- | --- | --- | --- | --- | --- | --- | --- | --- | --- | --- | --- |
| CN(CC(=O)O)C(=N)N [creatine] | 2 and 17 (2×) and 14 and 7 and 31 and 25 and 16 and 20 and 4 and 15 | 28.57% and 91.30% and 63.04% and 56.25% and 12.50% and 27.91% and 30.56% and 44.83% and 25.93% and 69.23% and 26.09% | 63.25% and 80.95% and 92.74% and 82.31% and 52.13% and 40.86% and 76.08% and 73.42% and 89.95% and 85.75% and 74.05% | 5 (2×) and 21 and 18 and 4 and 26 and 23 and 13 and 16 and 10 and 15 | 76.19% and 78.26% and 54.35% and 43.75% and 50.00% and 39.53% and 36.11% and 55.17% and 40.74% and 23.08% and 34.78% | 86.37% and 70.56% and 58.23% and 70.52% and 46.23% and 35.72% and 80.58% and 85.99% and 92.36% and 36.75% and 74.61% | 43.29 | 73.77 | 48.36 | 67.08 | greater than 70% | greater than 70% | partial negative allosteric modulator | preventing or significantly diminishing | last much longer than conventional antiepileptic drugs | – | – |
| NC1=NCCN1CC(=O)O [cyclocreatine] | – | – | – | – | – | – | – | – | – | – | – | – | – | – | – | does not confer the same therapeutic effect as creatine | – |
| CN(CC(=O)O)C(=N)NP(=O)(O)O [phosphocreatine] | – | – | – | – | – | – | – | – | – | – | – | – | – | preventing or significantly diminishing | – | – | same effect as creatine |
